Usually solubility stands for the concentration that dissolves in the medium under given conditions.

A short description of this data set: Comparative solubility test in various solvents. Format: physicochemical. The conditions noted are these: 1 mM concentration, 23° C., stirred 18 h, visually inspected; for solubility at 18 h: organic solvent or mixture, thermodynamic from solid. As to the method: Comparative Solubility Test
The comparative solubilities of the following Reference Compound 1 (reference from DE102017005884):
[drawing 83] and of Synthesis Example 1 in various solvents at 1 mM concentration at 23° C. are experimentally determined. The sample is stirred for 18 h at 23° C. and then visually inspected. In the table below the expression “soluble” means that after 18 h a clear solution is obtained. “Not soluble” means that remaining solid is observed.

Where [1] appears, read: 1-Methoxy-2-propanol acetate, read-out: Solubility in 1-methoxy-2-propanol acetate.
Setting [2] is: Cyclohexanone, read-out: Solubility in cyclohexanone.

Read-outs that look alike come from different tables or passages of the source.

As for `CCCCCC1CCC(c2ccc(OCCCCCCCCCCCP(=O)(O)O)c(F)c2F)CC1` (centres unmarked) [Reference 1, 11-[2,3-difluoro-4-(4-pentylcyclohexyl)phenoxy]undecylphosphonic acid, reference compound], the Solubility in chloroform result is given as “Soluble” and the “Solubility in THF” value is listed as “Soluble”. Also, under “Toluene”, the Solubility in toluene result is on record as “Soluble”. Moreover, the solubility at 18 h under setting [1] was less than 1000 µM. Under setting [2], the solubility at 18 h is less than 1000 µM. In addition, the solubility at 18 h (Ethyl acetate, read-out: Solubility in ethyl acetate) is less than 1000 µM.
Take `CCCCC[C@H]1CC[C@H](c2ccc(Oc3c(C)cc(P(=O)(O)O)cc3C)c(F)c2F)CC1` [Synthesis Example 1, [4-[2,3-difluoro-4-(4-pentylcyclohexyl)phenoxy]-3,5-dimethyl-phenyl]phosphonic acid]: the Solubility in chloroform entry is on record as “Soluble” and the “Solubility in THF” value is “Soluble”. Also, the “Solubility in 1-methoxy-2-propanol acetate” value (1-Methoxy-2-propanol acetate) was “Soluble”. Besides, the Solubility in cyclohexanone entry (Cyclohexanone) was “Soluble”. Further, the “Solubility in ethyl acetate” value (Ethyl acetate) was “Soluble”. Under setting [1], the solubility at 18 h was greater than 1000 µM. Moreover, the solubility at 18 h under setting [2] is greater than 1000 µM. For the same compound, under “Toluene, read-out: Solubility in toluene”, the solubility at 18 h was less than 1000 µM.
